Assay results reported in US11786597B2, “Ionic liquids for transdermal drug delivery” (priority 2013, dated 2023).
Like-named read-outs stand apart in the source and are kept apart here. Marks after values point to notes of the source that are not given here.

Legend:
[1] = Determination of lipophilicity (octanol/water distribution by UV absorbance); format: physicochemical; conditions: for percent in octanol: after extraction with water
Protocol: A 250 mL volume of n-octanol was shaken with 100 mL of ddH2O and left overnight. […]
The absorption of the octanol layer and water layers were measured and compared with the absorbance of the stock solutions. Measurements were repeated three times and the distribution coefficients were reported as the average. The percent of IL in octanol was calculated as the absorbance of the octanol layer after extraction divided by the absorbance of IL in octanol before extraction. The water/octanol distribution coefficient was calculated as the logarithm of the percent of IL in octanol divided by the percent of IL in water.

[2] = test system: Normal human bronchial epithelial (NHBE) cells; assay: WST-1 proliferation assay, 24 h exposure to diluted ILs; conditions: solubilized in culture medium
Protocol: Normal human bronchial epithelial (NHBE) cells were purchased (Lonza, Walkersville, MD) and cultured using bronchial epithelial cell growth media (BEGM, Clonetics Bullet Kit, Lonza, Walkersville, MD) on 100 mm tissue culture treated Petri dishes (Santa Cruz Biotechnologies, Santa Cruz, CA) coated with 50 μg/mL type I rat tail collagen (BD Biosciences, Bedford, MA). Cells were stored in an incubator with a humidified atmosphere at 37° C. and 5% CO2. Cells were fed two times weekly and passaged via trypsinization. Experimentation was performed in triplicate on cells harvested from passages 3 to 7.
NHBE cells were plated in 96-well tissue culture plates at a concentration of 1.5×10^4 cells/well in a volume of 200 μL and allowed to acclimate overnight. On the day of experimentation, treatment plates were prepared using stock ionic liquid diluted in BEGM and then serially diluted 3-fold for a total of 7 concentrations. The 96-well plates containing cells were then aspirated and the treatments (150 μL/well) were carefully transferred from the prep plate to the cells. Cells were exposed to the ionic liquids for 24 hours. Two hours prior to the end of the exposure time, positive control cell wells were aspirated, and a solution of 1% Triton-100 (150 μL/well) was added.
To assess cellular proliferation, water-soluble tetrazolium (WST-1) reagent (Clontech, Mountain View, CA) was added directly to cells, at a 1:10 dilution of the remaining media volume (7.5 μL of WST-1 reagent was added per 75 μL remaining cell culture media). NHBE cells exposed to media only and 1% Triton in BEGM were included as controls. Ionic liquid controls at the highest concentrations tested were included in wells without cells to rule out ionic liquid/assay reagent interference.

[3] = Viscosity (Viscolab 3000 viscometer); format: physicochemical
Protocol: Viscosity was measured on 1 mL samples with a Viscolab 3000 viscometer (Cambridge Viscosity, Medford, MA). […] Low-temperature differential scanning calorimetry (DSC) was performed on a DSC882e instrument (Mettler-Toledo Inc., Columbus, Ohio) under N2 atmosphere over two complete scans of a temperature range of −60 to 120° C. with a ramp rate of 10° C. per minute and a sample size of 18-21 mg in an aluminum crucible.

[4] = Conductivity of neat IL; format: physicochemical
Protocol: (§1) Determinations of conductivity were made on an ION450 benchtop meter (Radiometer Analytical) with a 2-pole electrode designed for use in viscous liquids (Radiometer Analytical CDC241-9) and calibrated with KCl. Conductivity was measured three times per sample on stirred 3 mL volumes of neat IL at 25° C. Density was measured three times per IL using a 1 mL volumetric flask and an analytical balance.

[5] = Density (volumetric flask and balance); format: physicochemical
Protocol: as §1

[6] = Calculations of molarity and ionic strength; format: physicochemical; conditions: neat IL, Table 5
[7] = test system: porcine skin; assay: Skin transport of 3H-Mannitol in Franz diffusion cell; format: in vitro ADME
Protocol: (§2) FIG. 1 is a schematic of the skin transport experiment set-up and analysis. Porcine skin was loaded into the Franz diffusion cell (FDC) with the stratum corneum (SC) facing up. Skin was incubated in contact with 3H-labeled drug dissolved in donor solution for 24 hrs, at 37° C., with stirring. After 24 hrs the donor solution was removed and skin thoroughly washed. The SC was separated from the epidermis by tape stripping. Ten tape strips were applied, each tape corresponding to 1 “layer” of SC. Ten tape strips were assumed to remove the entire SC. Epidermis was separated from dermis using a razor blade. Acceptor solution was collected, and drug transport into various tissue layers was quantified by scintillation counter.
3H-labeled Mannitol and Cefadroxil were obtained from American Radiolabeled Chemicals, Inc. and Moravek, respectively. FDCs were used to assess the transport enhancement of ionic liquids using a previously established protocol. Karande, et al., “Discovery of transdermal penetration enhancers by high-throughput screening”, Nat Biotechnol, 22(2): 192-7 (2004). Briefly, the acceptor chamber was filled with degassed PBS and a small stir bar added. Thawed porcine skin was clamped in place between the acceptor and donor chambers with the SC facing up. Care was taken to ensure no air bubbles resided in the acceptor chamber. Ionic liquids or PBS (control) were spiked with 3H-labeled drug (Mannitol and Cefadroxil) to a final concentration of 10 μCi/ml. 300 μL of donor solution was added to the donor chamber and incubated in contact with the SC for 24 hr, at 37° C., with stirring.
After 24 hr, the donor solution was removed, and the skin was thoroughly washed and dried.
SC was separated from epidermis by tape stripping. Ten tape strips were performed in an identical fashion, with each tape corresponding to 1 SC “layer”. Ten strips were assumed to remove the majority of the SC. Epidermis was separated from dermis with a razor blade, and the acceptor solution was collected from the acceptor chamber. Samples from each tissue layer and acceptor solution were dissolved in Soluble (Perkin Elmer, Waltham, MA) overnight and the concentration of radiolabeled solute was measured using a scintillation counter (Packard Tri-Carb 2100 TR, Meriden, CT).

[8] = Abbott et al. 2006; cited from earlier work
[9] = Solubility in water (physical characterization); conditions: 25° C.
[10] = test system: porcine skin; assay: Skin transport of 3H-Cefadroxil in Franz diffusion cell; format: in vitro ADME; conditions: spiked with Cefadroxil
Protocol: as §2
3H-labeled Mannitol and Cefadroxil were obtained from American Radiolabeled Chemicals, Inc. and Moravek, respectively. FDCs were used to assess the transport enhancement of ionic liquids using a previously established protocol. Karande, et al., “Discovery of transdermal penetration enhancers by high-throughput screening”, Nat Biotechnol, 22(2): 192-7 (2004). […]
SC was separated from epidermis by tape stripping. […] Samples from each tissue layer and acceptor solution were dissolved in Soluble (Perkin Elmer, Waltham, MA) overnight and the concentration of radiolabeled solute was measured using a scintillation counter (Packard Tri-Carb 2100 TR, Meriden, CT).

Row | Compound | percent in octanol ([1]; Table 3) | viscosity ([3]; 25° C.) [cP] | viscosity ([3]; Table 5) | conductivity ([4]; 25° C.) [mS/cm] | conductivity ([4]; Table 5) | density ([5]; 25° C.) [g/mL] | density ([5]; Table 5) [g/mL] | ionic strength [6] [M] | molarity [6] [M] | further results
1 | C[N+](C)(C)CCO.NC(N)=O.NC(N)=O.[Cl-] [LANL-6, urea-choline] | 24 +/− 8% | 1390 | 1386^a cP | 0.580 | 0.580^a mS/cm | 1.21 | 1.21 | 2.32 | 4.65 | partitioning into octanol [1]: partitioned poorly into octanol; log Po/w ([1]; octanol/water, Table 3): −0.51; toxicity to human primary cells [2]: low toxicity; viscosity at 40° C. ([3]; 40° C.): 170 cP; viscosity ([3]; text b171): 1390 cP; drug permeation into the SC ([7]; 3H-Mannitol, 24 hr, 37° C.): inhibited drug permeation into the SC; viscosity, literature value at 40° C. [8]: 169 cP; solubility in water [9]: miscible
2 | choline geranate [LANL-21] | 66 +/− 3% | 1345 | 1345 cP | 0.0431 | 0.0431 mS/cm | 0.990 | 0.990 | 3.39 | 2.26 | log Po/w [1]: 0.28; conductivity ([4]; text b172): 0.04 mS/cm; loss/partitioning of solute to the acceptor solution ([7]; 3H-Mannitol): enhanced partitioning into the acceptor solution; transport enhancement into/through all layers of the skin ([7]; 3H-Mannitol, relative to PBS control): 5-15 fold; skin transport properties ([7]; materials in lower right portion of Walden plot): best skin transport properties; partitioning into the dermis and acceptor solution versus control (PBS) [10]: 15-20 times
